Results as given in US8895695B2, “Template-fixed beta-hairpin peptidomimetics with CXCR4 antagonizing activity” (priority 2003, dated 2014).
Like-named read-outs stand apart in the source and are kept apart here. Numbered stars: 1 amine (or outer) side, 2 acyl side, 3 side chain; on linkers, the order of the positions; unused ones are H or OH. Bridge positions count the residues as written; N and C are the ends. Square brackets hold non-standard residues; d marks the D form. Peptide text beside a SMILES is read from it. X3 = COCCOCCOCC(=O)N[C@H]1C[C@@H](C(=O)[*:2])N([*:1])C1; N(3-imidazol-1-ylpropyl)Gly = O=C(O)CNCCCn1ccnc1; Phe(4-F) = N[C@@H](Cc1ccc(F)cc1)C(=O)O; X2 = CN1CCN(CCCN(CC(=O)[*:2])[*:1])CC1; 2Nal = N[C@@H](Cc1ccc2ccccc2c1)C(=O)O; 4Pal = N[C@@H](Cc1ccncc1)C(=O)O; Cit = NC(=O)NCCC[C@H](N)C(=O)O; NMeK = CN[C@@H](CCCCN)C(=O)O; Orn = NCCC[C@H](N)C(=O)O

What was measured:
[1] = tested on: human red blood cells (hRBC); assay: Hemolysis; assay type: cell-based
In short: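 Percent lysis taken as OD540 of peptide-treated sample over OD540 of the water/0.1% Triton X-100 full-lysis control, with PBS giving 0%. Peptides at 100 μM exposed to PBS-washed human RBCs (20% v/v) for 1 hour at 37° C. before centrifugation and 20-fold dilution of supernatant.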

in vitro = settings: human
CXCR4 = CXCR4 (Homo sapiens, UniProt P61073); assay: Ca2+-assay method 2 (Flexstation, SDF-1 induced calcium mobilization); assay type: cell-based; parameters: expressed in transfected cells; host or cells: mouse pre-B cell line 300-19; settings: method 2 (Ex. 54-160), mouse pre-B cell line 300-19 with human CXCR4, 10 nM SDF-1
Sequence of CXCR4 (P61073 whole entry): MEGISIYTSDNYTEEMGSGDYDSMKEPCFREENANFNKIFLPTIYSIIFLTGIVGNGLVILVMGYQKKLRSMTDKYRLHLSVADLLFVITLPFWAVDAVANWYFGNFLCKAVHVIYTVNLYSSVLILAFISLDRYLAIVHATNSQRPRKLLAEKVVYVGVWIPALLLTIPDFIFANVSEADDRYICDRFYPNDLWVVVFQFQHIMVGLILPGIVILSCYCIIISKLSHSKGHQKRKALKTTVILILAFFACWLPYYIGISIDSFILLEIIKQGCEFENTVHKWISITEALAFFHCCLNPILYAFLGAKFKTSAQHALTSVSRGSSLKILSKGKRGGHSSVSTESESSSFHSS

[2] = read-out: IC50 (nM) Ca^2+ assay
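Throughout, for GI50: MTT reduction read as absorbance at 595 nm, blank-corrected and expressed as percent growth relative to the time-zero cell reading, triplicate wells per concentration.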

| Structure (SMILES) | Hemolysis at 100 μM ([1]; percent hemolysis, 100 μM peptide, 20% v/v hRBC, 1 hour at 37° C.) | GI50 at 48 h (in vitro) | IC50 (CXCR4; IC50 (nM) Ca^2+ assay) | Hemolysis at 100 μM [1] | IC50 (CXCR4; [2]) |
| --- | --- | --- | --- | --- | --- |
| COCCOCCOCC(=O)N[C@H]1C[C@H]2C(=O)N[C@@H](Cc3ccc(O)cc3)C(=O)N[C@@H](CCCNC(=N)N)C(=O)N[C@@H](CCCNC(N)=O)C(=O)N[C@H]3CSSC[C@H](NC(=O)[C@H](Cc4c[nH]c5ccccc45)NC(=O)[C@H](CCCNC(=N)N)NC(=O)[C@H](CCCNC(=N)N)NC(=O)[C@H]4CCCN4C(=O)CNC(=O)[C@H](CCCNC(=N)N)NC3=O)C(=O)N[C@@H](Cc3ccc(O)cc3)C(=O)N[C@@H](CCCNC(N)=O)C(=O)N[C@@H](CCCCN)C(=O)N3CCC[C@@H]3C(=O)N2C1 [Ex. 116] (cyclo(YR[Cit]CRG[dP]RRWCY[Cit]K[dP][X3]); disulfide 4-11) | 0% | 20 µM | 14.5 nM |  |  |
| N=C(N)NCCC[C@@H]1NC(=O)[C@@H]2CSSC[C@H](NC(=O)[C@H](Cc3c[nH]c4ccccc34)NC(=O)[C@H](CCCN)NC(=O)[C@H](CCCNC(=N)N)NC(=O)[C@H]3CCCN3C(=O)CNC1=O)C(=O)N[C@@H](Cc1ccc(O)cc1)C(=O)N[C@@H](CCCNC(N)=O)C(=O)N[C@@H](CCCCN)C(=O)N1CCC[C@@H]1C(=O)N1CCC[C@H]1C(=O)N[C@@H](Cc1ccc(O)cc1)C(=O)N[C@@H](CCCNC(=N)N)C(=O)N[C@@H](CCCNC(N)=O)C(=O)N2 [Ex. 117] (cyclo(YR[Cit]CRG[dP]R[Orn]WCY[Cit]K[dP]P); disulfide 4-11) |  | 44 µM |  | 0% | 3.4 nM |
| C[C@@H](O)[C@@H]1NC(=O)[C@H](CCCNC(=N)N)NC(=O)[C@H](Cc2ccc(O)cc2)NC(=O)[C@@H]2CCCN2C(=O)[C@H]2CCCN2C(=O)[C@H](CCCCN)NC(=O)[C@H](CCC(N)=O)NC(=O)[C@H](Cc2ccc(O)cc2)NC(=O)[C@@H]2CSSC[C@H](NC1=O)C(=O)N[C@@H](CCCNC(=N)N)C(=O)NCC(=O)N1CCC[C@@H]1C(=O)N[C@@H](Cc1ccncc1)C(=O)N[C@@H](CCCNC(=N)N)C(=O)N[C@@H](Cc1c[nH]c3ccccc13)C(=O)N2 [Ex. 118] (cyclo(YRTCRG[dP][4Pal]RWCYQK[dP]P); disulfide 4-11) |  | 52 µM |  | 0% | 7.6 nM |
| C[C@@H](O)[C@@H]1NC(=O)[C@H](Cc2ccncc2)NC(=O)[C@H](Cc2ccc(O)cc2)NC(=O)[C@@H]2CCCN2C(=O)[C@H]2CCCN2C(=O)[C@H](CCCCN)NC(=O)[C@H](CCC(N)=O)NC(=O)[C@H](Cc2ccc(O)cc2)NC(=O)[C@@H]2CSSC[C@H](NC1=O)C(=O)N[C@@H](CCCNC(=N)N)C(=O)NCC(=O)N1CCC[C@@H]1C(=O)N[C@@H](CCCNC(=N)N)C(=O)N[C@@H](CCCNC(=N)N)C(=O)N[C@@H](Cc1c[nH]c3ccccc13)C(=O)N2 [Ex. 119] (cyclo(Y[4Pal]TCRG[dP]RRWCYQK[dP]P); disulfide 4-11) |  | 63 µM |  | 0% | 9.4 nM |
| N=C(N)NCCC[C@@H]1NC(=O)[C@@H]2CSSC[C@H](NC(=O)[C@H](Cc3c[nH]c4ccccc34)NC(=O)[C@H](CCCNC(=N)N)NC(=O)[C@H](CCCNC(=N)N)NC(=O)[C@H]3CCCN3C(=O)CNC1=O)C(=O)N[C@@H](Cc1ccc(O)cc1)C(=O)N[C@@H](CCCNC(N)=O)C(=O)N[C@@H](CCC(N)=O)C(=O)N1CCC[C@@H]1C(=O)N1CCC[C@H]1C(=O)N[C@@H](Cc1ccc(O)cc1)C(=O)N[C@@H](CCCNC(=N)N)C(=O)N[C@@H](CCCNC(N)=O)C(=O)N2 [Ex. 121] (cyclo(YR[Cit]CRG[dP]RRWCY[Cit]Q[dP]P); disulfide 4-11) |  | 79 µM |  | 0% | 6.5 nM |
| N=C(N)NCCC[C@@H]1NC(=O)[C@@H]2CSSC[C@H](NC(=O)[C@H](Cc3c[nH]c4ccccc34)NC(=O)[C@H](CCCNC(=N)N)NC(=O)[C@H](Cc3ccc(F)cc3)NC(=O)[C@H]3CCCN3C(=O)CNC1=O)C(=O)N[C@@H](Cc1ccc(O)cc1)C(=O)N[C@@H](CCCNC(N)=O)C(=O)N[C@@H](CCCCN)C(=O)N1CCC[C@@H]1C(=O)N1CCC[C@H]1C(=O)N[C@@H](Cc1ccc(O)cc1)C(=O)N[C@@H](CCCNC(=N)N)C(=O)N[C@@H](CCCNC(N)=O)C(=O)N2 [Ex. 122] (cyclo(YR[Cit]CRG[dP][Phe(4-F)]RWCY[Cit]K[dP]P); disulfide 4-11) |  | 60 µM |  | 0% | 8.8 nM |
| N=C(N)NCCC[C@@H]1NC(=O)[C@@H]2CSSC[C@H](NC(=O)[C@H](Cc3c[nH]c4ccccc34)NC(=O)[C@H](CCCNC(=N)N)NC(=O)[C@H](CCCNC(=N)N)NC(=O)[C@H]3CCCN3C(=O)CNC1=O)C(=O)N[C@@H](Cc1ccc(O)cc1)C(=O)N[C@@H](CCCNC(N)=O)C(=O)N[C@@H](CCCCN)C(=O)N1CCC[C@@H]1C(=O)N1CCC[C@H]1C(=O)N[C@@H](Cc1ccc(O)cc1)C(=O)N[C@@H](CCCNC(=N)N)C(=O)N[C@@H](CCCNC(N)=O)C(=O)N2 [Ex. 123] (cyclo(YR[Cit]CRG[dP]RRWCY[Cit]K[dP]P); disulfide 4-11) |  | 80 µM |  | 0% | 10 nM |
| N=C(N)NCCC[C@@H]1NC(=O)CN(CCCn2ccnc2)C(=O)[C@H]2CCCN2C(=O)CNC(=O)[C@H](CCCNC(=N)N)NC(=O)[C@@H]2CSSC[C@H](NC(=O)[C@H](Cc3ccc4ccccc4c3)NC1=O)C(=O)N[C@@H](Cc1ccc(O)cc1)C(=O)N[C@@H](CCCNC(N)=O)C(=O)N[C@@H](CCCCN)C(=O)N1CCC[C@@H]1C(=O)N1CCC[C@H]1C(=O)N[C@@H](Cc1ccc(O)cc1)C(=O)N[C@@H](CCCNC(=N)N)C(=O)N[C@@H](CCCNC(N)=O)C(=O)N2 [Ex. 125] (cyclo(YR[Cit]CRG[dP][N(3-imidazol-1-ylpropyl)Gly]R[2Nal]CY[Cit]K[dP]P); disulfide 4-11) |  | > 100 µM |  | 0% | 330 nM |
| CN1CCN(CCCN2CC(=O)N[C@@H](Cc3ccc4ccccc4c3)C(=O)N[C@H]3CSSC[C@H](NC(=O)[C@H](CCCNC(N)=O)NC(=O)[C@H](CCCNC(=N)N)NC(=O)[C@H](Cc4ccc(O)cc4)NC(=O)[C@@H]4CCCN4C(=O)[C@H]4CCCN4C(=O)[C@H](CCCCN)NC(=O)[C@H](CCCNC(N)=O)NC(=O)[C@H](Cc4ccc(O)cc4)NC3=O)C(=O)N[C@@H](CCCNC(=N)N)C(=O)NCC(=O)N3CCC[C@@H]3C(=O)N[C@@H](CCCNC(=N)N)C2=O)CC1 [Ex. 126] (cyclo(YR[Cit]CRG[dP]R[X2][2Nal]CY[Cit]K[dP]P); disulfide 4-11) |  | 85 µM |  | 0% | 19.5 nM |
| CN1C(=O)[C@H](CCCNC(N)=O)NC(=O)[C@H](Cc2ccc(O)cc2)NC(=O)[C@@H]2CSSC[C@H](NC(=O)[C@H](CCCNC(N)=O)NC(=O)[C@H](CCCNC(=N)N)NC(=O)[C@H](Cc3ccc(O)cc3)NC(=O)[C@@H]3CCCN3C(=O)[C@H]3CCCN3C(=O)[C@@H]1CCCCN)C(=O)N[C@@H](CCCNC(=N)N)C(=O)NCC(=O)N1CCC[C@@H]1C(=O)N[C@@H](CCCNC(=N)N)C(=O)N[C@@H](CCCNC(=N)N)C(=O)N[C@@H](Cc1ccc3ccccc3c1)C(=O)N2 [Ex. 127] (cyclo(YR[Cit]CRG[dP]RR[2Nal]CY[Cit][NMeK][dP]P); disulfide 4-11) |  | 62 µM |  | 0% | 52.2 nM |
| CN1CC(=O)N[C@@H](CCCCN)C(=O)N2CCC[C@@H]2C(=O)N2CCC[C@H]2C(=O)N[C@@H](Cc2ccc(O)cc2)C(=O)N[C@@H](CCCNC(=N)N)C(=O)N[C@@H](CCCNC(N)=O)C(=O)N[C@H]2CSSC[C@H](NC(=O)[C@H](Cc3ccc4ccccc4c3)NC(=O)[C@H](CCCNC(=N)N)NC(=O)[C@H](CCCNC(=N)N)NC(=O)[C@H]3CCCN3C(=O)CNC(=O)[C@H](CCCNC(=N)N)NC2=O)C(=O)N[C@@H](Cc2ccc(O)cc2)C1=O [Ex. 129] |  | 23 µM |  | 0% | 10.9 nM |
| N=C(N)NCCC[C@@H]1NC(=O)[C@@H]2CSSC[C@H](NC(=O)[C@H](Cc3ccc4ccccc4c3)NC(=O)[C@H](CCCNC(=N)N)NC(=O)[C@H](CCCNC(=N)N)NC(=O)[C@H]3CCCN3C(=O)CNC1=O)C(=O)N[C@@H](Cc1ccc(O)cc1)C(=O)N[C@@H](CCCNC(N)=O)C(=O)N[C@@H](CCCCN)C(=O)N1CCC[C@@H]1C(=O)N1CCC[C@H]1C(=O)N[C@@H](Cc1ccc(O)cc1)C(=O)N[C@@H](CCCNC(=N)N)C(=O)N[C@@H](CCC(N)=O)C(=O)N2 [Ex. 130] (cyclo(YRQCRG[dP]RR[2Nal]CY[Cit]K[dP]P); disulfide 4-11) |  | 62 µM |  | 0% | 4.1 nM |
| C[C@@H](O)[C@@H]1NC(=O)[C@H](CCCNC(=N)N)NC(=O)[C@H](Cc2ccc(O)cc2)NC(=O)[C@@H]2CCCN2C(=O)[C@H]2CCCN2C(=O)[C@H](CCCCN)NC(=O)[C@H](CCCNC(N)=O)NC(=O)[C@H](Cc2ccc(O)cc2)NC(=O)[C@@H]2CSSC[C@H](NC1=O)C(=O)N[C@@H](CCCNC(=N)N)C(=O)NCC(=O)N1CCC[C@@H]1C(=O)N[C@@H](CCCNC(=N)N)C(=O)N[C@@H](CCCNC(=N)N)C(=O)N[C@@H](Cc1ccc3ccccc3c1)C(=O)N2 [Ex. 131] (cyclo(YRTCRG[dP]RR[2Nal]CY[Cit]K[dP]P); disulfide 4-11) |  | 53 µM |  | 0% | 2.4 nM |
